Results taken from patent US7279321B2, “Methods for increasing the resistance of a host cell to aromatic carboxylic acids” (priority 2003, dated 2007).
In brackets after ≈: the same amount, converted by molar mass.

How the values were obtained:
Assay type in all cases: cell-based
[1] = system: E. coli strain DPD2433 (yhcS−); experiment: pHBA zone of growth inhibition on solidified Vogel-Bonner medium; details: sodium salt of pHBA 80 μmoles/disk, Vogel-Bonner with glucose
Method: This was tested by measuring the size of the zone of growth inhibition and scoring the degree of growth within the zones resulting from the sodium salt of pHBA (80 μmoles/disk) on solidified Vogel-Bonner medium with glucose as the carbon source (Table 5).

[2] = system: yhcP gene (co-transcribed with yhcQ and yhcR); experiment: expression of yhcP upon treatment of E. coli cells with aromatic carboxylic acids
[3] = system: E. coli DPD2435 (yhcS−, tolC−) with pTrcHis2TOPO®/lacZ (control); experiment: pHBA MIC, 3:4 dilutions, Vogel-Bonner medium with 0.4% glucose; details: Escherichia coli, 21 h, read-out: pHBA MIC
From the text: (§1) An additional experiment is consistent with the above conclusion. This experiment used E. coli strain MG1655 and strains derived from it, DPD1818 (described above in this example) with a to/C::miniTn10 mutation, […] (described in example 3) with a yhcS::TN<Kan> mutation, and DPD2435 that carries both the to/C::miniTn10 and yhcS::TN<Kan> mutations. The latter strain was constructed using P1clr100Cm mediated transduction of DE112 with phage grown on strain DPD2410 (described in Example 3) and selection for kanamycin resistance. These four strains were each transformed with plasmids pTrcHis2TOPO®/lacZ (Invitrogen) for a control and pDEW668 that expresses the yhcRQP operon (described in Example 2). […] Vogel-Bonner minimal medium with 0.4% glucose was used. […] The inoculum was 50 μl of a 1:500 dilution into Vogel-Bonner medium with 0.4% glucose as a carbon source of overnight cultures of each of the plasmid-containing strains grown in the same medium except with addition of 25 μg/ml Ampicillin.

[4] = system: E. coli DPD2433 (yhcS−) with pDEW668 (yhcRQP); experiment: as above; details: Escherichia coli, 21 h, read-out: pHBA MIC
From the text: as §1

[5] = system: E. coli DPD2433 (yhcS−) with pTrcHis2TOPO®/lacZ (control); experiment: as above; details: Escherichia coli, 21 h, read-out: pHBA MIC
From the text: as §1

[6] = system: E. coli DPD1818 (tolC−) with pTrcHis2TOPO®/lacZ (control); experiment: as above; details: Escherichia coli, 21 h, read-out: pHBA MIC
From the text: as §1

[7] = system: E. coli DPD1818 (tolC−) with pDEW668 (yhcRQP); experiment: as above; details: Escherichia coli, 21 h, read-out: pHBA MIC
From the text: as §1

[8] = system: E. coli MG1655 (+) with pTrcHis2TOPO®/lacZ (control); experiment: as above; details: Escherichia coli, read-out: pHBA MIC, control plasmid, 21 hours at 37° C., sodium salt, highest tested 100 mM
From the text: as §1

[9] = system: E. coli MG1655 (+) with pDEW668 (yhcRQP); experiment: as above; details: Escherichia coli, MG1655, 21 h, read-out: pHBA MIC
From the text: as §1

[10] = system: E. coli DPD2435 (yhcS−, tolC−) with pDEW668 (yhcRQP); experiment: as above; details: Escherichia coli, 21 h, read-out: pHBA MIC
From the text: as §1

[11] = system: E. coli MG1655 (yhcP+); experiment: microbe, parasite or virus in culture
Method: (§2) Additional compounds were tested for growth inhibition of E. coli MG1655 (yhcP^+) and DPD2444 (yhcP^−) in Vogel-Bonner medium with glucose as the carbon source and with 0.01% tetrazolium violet added as an indicator of viability. A series of two-fold dilutions of each chemical was made to the wells of a clear 96-well microplate in 50 μl volume. To these wells was added 50 μl of an overnight culture in Vogel Bonner medium with glucose as a carbon source of either MG1655 or DPD2444 that had been previously diluted 500-fold into fresh medium. The plates were incubated at 37° C. without shaking for 16 to 18 hours. The purple color in each well was visually scored. A score of 4+ indicated full purple color equivalent to a no chemical control well. Scores of 3+, 2+, or 1+ indicated decreasing amounts of purple color. A score of − indicated the complete absence of color. The MIC was defined as the lowest tested concentration that gave complete absence of color. The rank of difference between strains was defined as the score of pigment color for E. coli MG1655 in wells containing the concentration of a given chemical at the MIC for DPD24444. When MG1655 had no color, the score was 0. When MG 1655 was scored at 1+, the score was 1, when scored at 2+, the score was 2, etc.

[12] = system: E. coli DPD2444 (yhcP−); experiment: microbe, parasite or virus in culture
Method: as §2

[13] = system: E. coli strain DPD1818 (tolC); experiment: Growth in LB medium in the presence of pHBA, scored visually; note: key: ++++ indicates full turbidity; +++ indicates moderate, but visually less than full turbidity; + indicates very slight turbidity; − indicates no turbidity
From the text: (§3) Strain DPD1818 carries a to/C::miniTn10 mutation in the MG1655 background. It was constructed by transduction of E. coli MG1655 using P1clr100 Cm phage grown on E. coli strain DE112 (Van Dyk et al. Appl. Environ. Microbiol. 60:1414-1420 (1994)), which carries a tolC::miniTn10 mutation, and selection for tetracycline resistance. Strain DPD2444, described above, carries a yhcP::TN<Kan> mutation. Strain DP2446 carries both the tolC::miniTn10 and yhcP::TN<Kan>. This strain was constructed using by P1clr100Cm mediated transduction of DE112 with phage grown on strain DPD2443 and selection for kanamycin resistance. Each of these mutant strains was grown overnight in LB medium at 37° C. […] The final volume in the wells of a 96-well microplate was 100 μl and the final dilution of the inoculum was 1 to 1000. This microplate was covered and incubated at 37° C. for 7 hours and then incubated at room temperature for 3 days. The growth in each well was then scored visually.

[14] = system: E. coli strain DPD2446 (tolC yhcP); experiment: as above; note: key: ++++ indicates full turbidity; +++ indicates moderate, but visually less than full turbidity; + indicates very slight turbidity; − indicates no turbidity
From the text: as §3

[15] = system: E. coli strain DPD2444 (yhcP); experiment: as above; note: key: ++++ indicates full turbidity; +++ indicates moderate, but visually less than full turbidity; + indicates very slight turbidity; − indicates no turbidity
From the text: as §3

[16] = system: E. coli strain MG1655 (+); experiment: as above; note: key: ++++ indicates full turbidity; +++ indicates moderate, but visually less than full turbidity; + indicates very slight turbidity; − indicates no turbidity
From the text: as §3

## O=C(O)c1ccc(O)cc1 [pHBA, para-hydroxybenzoic acid]
[1]
  degree of growth within the pHBA zone of growth inhibition: clear
[1]; average of two experiments
  pHBA zone of growth inhibition, mm diameter: 20.2 mm
[2]
  expression of the yhcP gene upon treatment of E. coli cells: highly upregulated
[3]
  MIC: 13 mM (≈ 1.8 mg/mL)
[4]
  MIC: 100 mM (≈ 13.8 mg/mL)
[5]
  MIC: 18 mM (≈ 2.49 mg/mL)
[6]
  MIC: 56 mM (≈ 7.73 mg/mL)
[7]
  MIC: 100 mM (≈ 13.8 mg/mL)
[8]
  MIC: 100 mM
[9]
  MIC: 100 mM (≈ 13.8 mg/mL)
[10]
  MIC: 100 mM (≈ 13.8 mg/mL)
[11]; Escherichia coli, MG1655, read-out: MIC, MG1655 (yhcP+)
  MIC: 100 mM (≈ 13.8 mg/mL)
[11]; score of pigment color for MG1655 at the MIC for DPD2444 (0 = no color, 4 = full purple color)
  Rank Diff: 4
[12]; Escherichia coli, read-out: MIC, DPD2444 (yhcP−)
  MIC: 12.5 mM (≈ 1.73 mg/mL)
[12]; MIC difference at least 2-fold and rank at least 2
  defined as substrate of the YhcP efflux pump by this genetic test: substrates of the YhcP efflux pump
[13]; 25 mM pHBA sodium salt
  Growth in LB medium for 3 days at room temperature with pHBA: ++++
[13]; 50 mM pHBA sodium salt
  Growth in LB medium for 3 days at room temperature with pHBA: ++++
[13]; 100 mM pHBA sodium salt
  Growth in LB medium for 3 days at room temperature with pHBA: +
[13]; 200 mM pHBA sodium salt
  Growth in LB medium for 3 days at room temperature with pHBA: −
[14]; 25 mM pHBA sodium salt
  Growth in LB medium for 3 days at room temperature with pHBA: ++++
[14]; 50 mM pHBA sodium salt
  Growth in LB medium for 3 days at room temperature with pHBA: +
[14]; 100 mM pHBA sodium salt
  Growth in LB medium for 3 days at room temperature with pHBA: −
[14]; 200 mM pHBA sodium salt
  Growth in LB medium for 3 days at room temperature with pHBA: −
[15]; 25 mM pHBA sodium salt
  Growth in LB medium for 3 days at room temperature with pHBA: ++++
[15]; 50 mM pHBA sodium salt
  Growth in LB medium for 3 days at room temperature with pHBA: ++++
[15]; 100 mM pHBA sodium salt
  Growth in LB medium for 3 days at room temperature with pHBA: −
[15]; 200 mM pHBA sodium salt
  Growth in LB medium for 3 days at room temperature with pHBA: −
[16]; 25 mM pHBA sodium salt
  Growth in LB medium for 3 days at room temperature with pHBA: ++++
[16]; 50 mM pHBA sodium salt
  Growth in LB medium for 3 days at room temperature with pHBA: ++++
[16]; 100 mM pHBA sodium salt
  Growth in LB medium for 3 days at room temperature with pHBA: +++
[16]; 200 mM pHBA sodium salt
  Growth in LB medium for 3 days at room temperature with pHBA: −
